Experimental data reported in patent US7820690B2, “Method of treating or inhibiting a non-digestive tract derived abdominal disorder associated with pain using a 5-HT, receptor antagonist” (Solvay Pharmaceuticals GmbH, priority 2004, dated 2010).
Where two headings read alike, the source gives them in different places.

Test system: rats with cyclophosphamide-induced cystitis
Assay: cystometry in rats with cyclophosphamide-induced cystitis
Format: in vivo, male Wistar rats
Settings: for inhibition at 0.01 mg/kg / inhibition at 0.1 mg/kg: Rattus norvegicus, iv; for inhibition at 0.01 mg/kg: group 4, cilansetron 0.01 mg/kg i.v.; for inhibition at 0.1 mg/kg: group 5, cilansetron 0.1 mg/kg i.v.
Description: In this test model, the effect of 5-HT3 receptor antagonists on rats with cyclophosphamide-induced cystitis was investigated.
Inflammation of the bladder responsible for bladder overactivity was induced by an intraperitoneal (i.p.) cyclophosphamide injection (150 mg/kg, i.p.) 48 hours before testing (Maggi et al., J Auton Nerv Syst 38 (1992) 201) using male Wistar rats weighing 300-350 g. The rats were anesthetized with urethane delivered subcutaneously in saline (1.2 g/kg), and their temperature was maintained at 37° C. Following a midline abdominal incision, a catheter was inserted through the bladder dome and sealed with a tie. The catheter was connected via a T-tube to a pressure transducer and a syringe pump, to allow filling of the bladder with warm (37° C.) saline at 50 μl/min simultaneously with recording of intravesical pressure. This catheter was later used for cystometry.
For each voiding and non-voiding contraction, the threshold pressure (ThP, corresponding to the bladder pressure at the onset of the voiding contraction (mm Hg)), the maximal voiding pressure (MP, defined by the maximal bladder pressure reached during voiding contraction (mm Hg)) the basal pressure (BaP, defined by the lowest bladder pressure reached after the voiding contraction (mm Hg)) and the area under the curve of the bladder pressure (AUP) during voiding (mm Hg×s) was calculated for each rat and averaged for each condition. In addition, the frequency of contractions was determined.
Test groups consisting of 10 rats each were used. Drug treatments were carried out as described in the following Table 1.
In groups 2 through 5, cystitis was induced by administration of cyclophosphamide 150 mg/kg intraperitoneally (i.p.) 48 hours before the experiment. Group 1 served as a control group. Drugs or vehicle to be tested were injected 10 minutes before the beginning of cystometry. Besides […] doses of cilansetron (groups 4-5), HOE140 (D-Arginyl-[Hyp3, Thi5, D-Tic7, Oic8]-bradykinin), a bradykinin 2 receptor antagonist, was used as a reference standard known to be active in this model. During the cystometry the pressure changes due to transvesical perfusion of warm saline at 50 μl/min were recorded over 60 minutes. Parameters (as outlined above) were analyzed for each bladder filling.

[1] = read-out: % inhibition of cystitis effects, basal pressure
[2] = read-out: % inhibition of cystitis effects, frequency
[3] = read-out: % inhibition of cystitis effects, threshold pressure
[4] = group 4, cyclophosphamide cystitis + cilansetron 0.01 mg/kg i.v.
[5] = group 5, cyclophosphamide cystitis + cilansetron 0.1 mg/kg i.v.
[6] = HOE140 130 μg/kg i.v., effect of treatment in cystitis rats
[7] = group 3, cyclophosphamide cystitis + HOE140 130 μg/kg i.v.

Cc1nccn1C[C@H]1CCc2c(c3cccc4c3n2CCC4)C1=O [cilansetron, (R)-(−)-4,5,6,8,9,10-hexahydro-10-[(2-methyl-1H-imidazol-1-yl)methyl]-11H-pyrido-[3,2,1-jk]-carbazol-11-one]
inhibition at 0.01 mg/kg [1]: 50% | inhibition at 0.01 mg/kg [2]: 45% | inhibition at 0.01 mg/kg [3]: 60% | inhibition at 0.1 mg/kg [1]: 83% | inhibition at 0.1 mg/kg [2]: 35% | inhibition at 0.1 mg/kg [3]: 100% | effectiveness compared with reference compound HOE 140 (cilansetron 0.01 mg/kg i.v.): similarly effective to, or even more effective than | symptoms of bladder overactivity associated with cyclophosphamide pretreatment (cilansetron 0.01 and 0.1 mg/kg, compared with HOE140): reduced these symptoms to an equivalent or slightly greater extent | beneficial effect compared with HOE140 (cystometry in rats with cyclophosphamide-induced cystitis, overall conclusion): superior | basal pressure [4]: 16 mmHg | frequency of bladder contractions [4]: 26 h⁻¹ | threshold pressure [4]: 17 mmHg | basal pressure [5]: 14 mmHg | frequency of bladder contractions [5]: 28 h⁻¹ | threshold pressure [5]: 15 mmHg

D-Arginyl-[Hyp3, Thi5, D-Tic7, Oic8]-bradykinin [HOE140]
area under the curve of the bladder contractions [6]: not affected | first micturition volume [6]: not affected | micturition pressure [6]: not affected | symptoms of bladder overactivity associated with cyclophosphamide pretreatment (acute treatment, HOE140 130 μg/kg): reduced the symptoms of bladder overactivity | % inhibition of cystitis effects, basal pressure (group 3, HOE140 130 μg/kg i.v.): 50% | % inhibition of cystitis effects, frequency (group 3, HOE140 130 μg/kg i.v.): 25% | % inhibition of cystitis effects, threshold pressure (group 3, HOE140 130 μg/kg i.v.): 60% | frequency of bladder contractions [7]: 30 h⁻¹ | threshold pressure [7]: 17 mmHg | basal pressure (group 3, cyclophosphamide cystitis + HOE140 130 μg/kg i.v., 10 minutes before cystometry): 16 mmHg
